The values below come from patent US5885993A, “Remedy for pancreatitis” (Nippon Shinyaku Company, Limited, priority 1995, dated 1999).

For one series, the system named is Cn+St pancreatitis. The series is described as follows: Antipancreatitis activity: severity of pancreatitis and wet weight of pancreas in Cn+St pancreatitis (cerulein plus water immersion stress). It counts as in vivo, SD rats (female, 12-week-old). Conditions: for Wet weight of pancreas / Severity of pancreatitis: oral gavage 18 and 2 hours before first Cn dosing, mean ± S.E.; for Severity of pancreatitis: score. From the text:
The antipancreatitis action of the compound of the invention was confirmed in a test using rats as described hereinafter. The test protocol used is the most popular of all of the test protocols available for the evaluation of therapeutic drugs for pancreatitis in animals. A high correlation has been reported to hold between the antipancreatitis effect found by this test and the clinical effect in man [Yamaguchi et al.: Association of stresses in the onset of pancreatitis, Shoukakika, 18(2), 186-196, 1994). Female 12-week-old SD rats were used in groups of 10 individuals. After 40 μg/kg of cerulein (Cn) was administered intraperitoneally, the animals were placed in stress cages and immersed down to the xiphoid in a constant-temperature bath at 23° C. One hour later, 40 μg/kg of Cn was administered i.p. again and the stress loading was continued. After 5 hours of stress loading, the animals were sacrificed and laparotomized and the severity of pancreatitis was scored in accordance with the evaluation criteria proposed by Yamaguchi et al. (Gastroenterology 98: 1682-1688, 1990). In addition, the pancreas was excised and its wet weight was determined. As the test compounds, compounds 1, 2, 3, and 4 were administered by oral gavage 18 and 2 hours before the first Cn dosing. As a control compound, irsogladine maleate was used. Statistical significance was tested by Wilcoxon rank sum test for the severity and by Dunnett test for the wet weight.

In another series the test system is male mice (BALB/c). The series can be described thus: Acute toxicity. It counts as in vivo. Conditions: monitored for 1 week. As for the experimental part:
Six-week-old male mice (BALB/c) fasted in advance was orally dosed with 1 g/kg or 500 mg/kg of the test compound and the time course of mortality was monitored for 1 week. The test compound was suspended in 0.5% aqueous methylcellulose solution and administered in the dose of 500 or 1,000 mg/20 ml/kg. […] The toxicity of the compound of the invention is, thus, extremely low.

Series [1] is described as follows: Effect on body weight gain. Type of series: in vivo, SD rats (male, 6-week-old). The conditions noted are these: 1000 mg/kg orally daily for 2 consecutive weeks. On the procedure:
Compound 1 was administered orally to 6-week-old male SD rats (in groups of 5) daily to investigate its effect on body weight gain.

Series [2] relates to cerulein-induced acute pancreatitis. The conditions noted are these: Proceedings of the 36th Congress of The Japanese Society of Gastroenterology, p.266; cited from earlier work.

On to `Nc1nc(-c2cc(Cl)ccc2Cl)nc(N2C[C@H](O)C[C@H]2CO)n1` [Compound 3, 2-Amino-4-(2,5-dichlorophenyl)-6-[(2S,4R)-2-hydroxymethyl-4-hydroxy-1-pyrrolidinyl]-1,3,5-triazine], for which the “Wet weight of pancreas” value in the series on Cn+St pancreatitis (3 mg/kg) amounted to 7.58 ± 0.36 g/kg; in the series with Cn+St pancreatitis (10 mg/kg) it was 6.67 ± 0.37 g/kg; in the series with Cn+St pancreatitis (30 mg/kg) it was 5.96 ± 0.70 g/kg. In addition, the results for the Severity of pancreatitis in the series with Cn+St pancreatitis (3 mg/kg), in the series on Cn+St pancreatitis (10 mg/kg) and in the series with Cn+St pancreatitis (30 mg/kg) were 1.4 ± 0.10, 0.7 ± 0.08 and 0.6 ± 0.08, respectively. The mortality entry in the series on male mice (BALB/c) (1 g/kg oral) was “no death was encountered”.

In the case of `Cl.Nc1nc(-c2cc(Cl)ccc2Cl)nc(N2CCC[C@H]2CO)n1` [Compound 2, (S)-2-amino-4-(2,5-dichlorophenyl)-6-(2-hydroxymethyl-1-pyrrolidinyl)-1,3,5-triazine hydrochloride], the “Wet weight of pancreas” value amounted to 6.86 ± 0.41 g/kg with Cn+St pancreatitis (1 mg/kg), 6.83 ± 0.48 g/kg in the series on Cn+St pancreatitis (3 mg/kg), 7.31 ± 0.64 g/kg in the series with Cn+St pancreatitis (10 mg/kg) and 4.35 ± 0.32 g/kg with Cn+St pancreatitis (30 mg/kg). Moreover, the Severity of pancreatitis turned out to be 1.3 ± 0.30 with Cn+St pancreatitis (1 mg/kg), 0.8 ± 0.29 with Cn+St pancreatitis (3 mg/kg), 0.4 ± 0.16 in the series on Cn+St pancreatitis (10 mg/kg) and 0.1 ± 0.03 with Cn+St pancreatitis (30 mg/kg). In the series with male mice (BALB/c) (500 mg/kg oral), the mortality entry is “no death was encountered”.

Turning to `Nc1nc(-c2cc(Cl)ccc2Cl)nc(N(CCO)CCO)n1` [Compound 1, 2-Amino-4-[N,N-bis(2-hydroxyethyl)amino]-6-(2,5-dichlorophenyl)-1,3,5-triazine], the “Wet weight of pancreas” value turned out to be 9.33 ± 0.66 g/kg with Cn+St pancreatitis (10 mg/kg), 7.13 ± 0.57 g/kg in the series on Cn+St pancreatitis (30 mg/kg) and 5.65 ± 0.40 g/kg in the series on Cn+St pancreatitis (100 mg/kg). The Severity of pancreatitis with Cn+St pancreatitis (10 mg/kg) came to 1.4 ± 0.22; with Cn+St pancreatitis (30 mg/kg), 0.6 ± 0.22; with Cn+St pancreatitis (100 mg/kg), 0.3 ± 0.21. The “effect on body weight gain” value in series [1] is listed as “did not affect the body weight gain of rats”. Further, the mortality result in the series on male mice (BALB/c) (1 g/kg oral) was “no death was encountered”.

For `Nc1nc(N)nc(-c2cc(Cl)ccc2Cl)n1.O=C(O)/C=C\C(=O)O` [irsogladine maleate, 2,4-diamino-6-(2,5-dichlorophenyl)-1,3,5-triazine maleate, reference compound], the figures for the “Wet weight of pancreas” value in the series with Cn+St pancreatitis (10 mg/kg), in the series with Cn+St pancreatitis (30 mg/kg) and in the series on Cn+St pancreatitis (100 mg/kg) were 10.09 ± 0.51 g/kg, 8.52 ± 0.60 g/kg and 7.14 ± 0.58 g/kg, respectively. In addition, the Severity of pancreatitis stood at 2.2 ± 0.33 with Cn+St pancreatitis (10 mg/kg), 1.5 ± 0.27 with Cn+St pancreatitis (30 mg/kg) and 0.4 ± 0.22 in the series with Cn+St pancreatitis (100 mg/kg). The minimal effective dose in the series on Cn+St pancreatitis (Rattus norvegicus, only at this dose (10, 30, 100 mg/kg tested), oral, read-out: dose showing a significant reducing effect on the severity of pancreatitis) came to 100 mg/kg. The “effect on wet weight (swelling) of pancreas relative to comparator, in words” value in the series with Cn+St pancreatitis (compound of the invention versus control compound irsogladine maleate) was “almost equivalent to the compound of the invention in the effect on wet weight of pancreas”. Also, the “inhibitory activity in Cn+St pancreatitis (in words)” value in the series with Cn+St pancreatitis (rat model, cerulein plus water immersion stress loading) was “only moderate activity”. Further, the “efficacy in Cn-induced acute pancreatitis (in words)” value in series [2] was “proved efficacious”.

In the case of `Nc1nc(-c2cc(Cl)ccc2Cl)nc(N2CCOCC2)n1` [Compound 4, 2-Amino-4-(2,5-dichlorophenyl)-6-morpholino-1,3,5-triazine], the “Wet weight of pancreas” value in the series with Cn+St pancreatitis (10 mg/kg) turned out to be 7.33 ± 0.23 g/kg; with Cn+St pancreatitis (30 mg/kg), 6.18 ± 0.53 g/kg; with Cn+St pancreatitis (100 mg/kg) it was 7.49 ± 0.47 g/kg. Also, the Severity of pancreatitis in the series with Cn+St pancreatitis (10 mg/kg) was 0.9 ± 0.28; with Cn+St pancreatitis (30 mg/kg), 0.5 ± 0.22; in the series on Cn+St pancreatitis (100 mg/kg), 0.5 ± 0.17. Moreover, the mortality result in the series with male mice (BALB/c) (1 g/kg oral) was “no death was encountered”.
